Consider four molecules from PMC4929710, “Specificity and mechanism of action of alpha-helical membrane-active peptides interacting with model and biological membranes by single-molecule force spectroscopy” (Scientific Reports, 2016).

Experiment [1] relates to PC/Chol (8:1 w/w) LUVs. Briefly: Single-molecule force spectroscopy (AFM). Format: binding. The settings on record: RMS ± SD; N-terminal Cys peptide on AFM tip via PEG linker; normal eukaryotic model membrane. The text has this: Based on the above results, five selected peptides of V13L, A12L/A20L, V13K, V13E, and L6A/L17A, with different hydrophobicity and charges were used to examine the interaction probabilities and forces between peptides and membranes, both on the lipid model membranes and on the biological membranes by SMFS based on AFM, respectively. A cysteine residue was covalently introduced to the N-terminus of peptides and provided a free sulfhydryl group to modify the tips of the AFM. A PEG linker was used since each heterobifunctional PEG–NHS linker (approximately 20 nm) can only covalently connect with a single peptide molecule, which guarantees a single-molecule interaction between MAPs and biological membranes in real time[19]. If an AFM tip was functionalized with two or more peptides, where several peaks were recorded. In the reports, data with two peaks were not collected and calculated. For one force–distance cycle, one peptide-functionalized AFM tip approached the model and biological membranes right on the top, and the subsequent tip was withdrawn from the cell membranes to retrace the process. […] In addition, blocking experiment was used to test the specificity of these force events. As the electrostatic attraction is one important reason for peptides approaching model membranes and biological membranes, the Tris-HCl buffer including plenty amino groups[20] was injected into the working chamber and inhibits the interactions between MAPs and model membranes/biological membranes. […] The unbinding forces of V13L against different model membranes and biological membranes with the loading rate of 1 × 10^5 pN s^−1 are shown in Fig. 3c,f–h,j–l.
Lipids using the freeze-thaw method as described previously, followed by extrusion through […] double-stacked nuclepore filters using an Mini-Extruder (Avanti Polar Lipids, Inc.)[11][27].
The AFM tip was first washed with concentrated sulfuric acid and hydrogen peroxide (3:1, v:v). The tip was dried using ozone (O3) for 15 min and dried overnight in a dryer. The tip was then modified with APTES under an argon atmosphere and the peptide connected with a PEG–NHS linker. Finally, the AFM tip linked with the peptide was washed three times in PBS and kept at 4 °C. A 500-μL LUV suspension was deposited on Lys coated glass and the LUVs were absorbed on the surface for 1 h at 65 °C [9][29]. A. laidlawii was deposited on poly-L-lysine coated glass and absorbed for 1 h at 37 °C [30]. The 3T3-L1 and HeLa cells were cultured on glass slides in Dulbecco’s modified Eagle’s medium (DMEM). Before performing force spectroscopy experiments, the cells were washed with fresh DMEM three times to remove the cell metabolites. Isolation of chicken erythrocytes was carried out at room temperature. […]

The test system of experiment [2] is PC/Chol (8:1 w/w) LUVs. Briefly: Tryptophan fluorescence with LUVs. As to conditions: PC/Chol (8:1 w/w) LUVs versus HEPES buffer, 25 °C. Format: binding. An excerpt: (§1) In order to investigate the interaction between peptides and difference types of cell membranes, three different LUVs were used to mimic a prokaryotic cell membrane (PC/PG), a normal eukaryotic cell membrane (PC/Chol), and a cancer cell membrane (PC/SM/PE/PS/Chol). Tryptophan residue in the peptide sequence was used as a fluorescent probe to examine the interaction of peptides with model membranes. […] For example, in the PC/PG (7:3 w/w) anionic prokaryotic mimicking model membrane, peptides V13L and A12L/A20L had the strongest hydrophobicity with blue shift values of approximately 37 nm and 38 nm, respectively. Conversely, peptide V13E with a negative charge of glutamic acid residue, and peptide L6A/L17A with the lowest hydrophobicity had blue shift values of approximately 18 nm and 17 nm, respectively. […] In addition, within PC/SM/PE/PS/Chol (4.35:4.35:1:0.3:1 w/w) as a cancer-mimicking model membrane, the same results could be obtained in that peptide hydrophobicity correlates with anticancer activity and the blue shift values of peptides.
(§2) In accordance with previously described methods, LUVs were prepared with PC/PG (7:3 w/w), PC/Chol (8:1 w/w), and PC/SM/PE/PS/Chol (4.35:4.35:1:0.3:1 w/w) to mimic prokaryotic cell, […], membranes, respectively. Lipids using the freeze-thaw method as described previously, followed by extrusion through […] double-stacked nuclepore filters using an Mini-Extruder (Avanti Polar Lipids, Inc.)[11][27].
(§3) Three kinds of LUVs were prepared and cultured in HEPES buffer (pH 7.4, 10 mM HEPES, 150 mM NaCl) and the molar concentration was adjusted to 100 μM. A total of 14 μL of 100 μM MAPs was mixed with 686 μL of 100 μM liposomes at 25 °C for 10 min. A Shimadzu RF-5301PC, (excitation wavelength of […], emission wavelength of 300–450 nm) was used to measure the tryptophan fluorescence. Potassium iodide (KI) as a quencher was added to the previous reaction system for a final concentration of 0.02–0.08 M, respectively. The experimental data were plotted according to the Stern–Volmer equation F0/F = 1 + Ksv[Q], where F0 and F are the fluorescence intensity in the absence or presence of a quencher at concentration [Q], respectively, and Ksv is the Stern–Volmer quenching constant.

Experiment [3] deals with PC/SM/PE/PS/Chol (4.35:4.35:1:0.3:1 w/w) LUVs. Briefly: Tryptophan fluorescence with LUVs. The experiment is classed as binding. As to conditions: PC/SM/PE/PS/Chol (4.35:4.35:1:0.3:1 w/w) LUVs versus HEPES buffer, 25 °C.
Source text: as §1, §2, §3

The next experiment concerns HeLa cells. The experiment is classed as cell-based, human. As to conditions: 24 h. The procedure:
(§4) The MTT cell proliferation assay was used to investigate the anticancer activity and cytotoxicity of MAPs against cancer cell lines (HeLa, A549, SGC-7901, and B16) and normal cells (3T3-L1), respectively. Cells (5 × 10^3) were seeded in 96-well plates and incubated overnight. The peptide samples were then added to cells with final concentrations ranging from 1 μM to 125 μM. After 24 h, 20 μL of 5 mg/mL MTT solution in PBS was added to the cells and treated for 4 h at 37 °C. The formazan crystals were dissolved by 150 μL of dimethyl sulfoxide (DMSO). Finally, the absorbance was determined at 492 nm. The results were expressed as IC50, representing the concentration at which cell viability was reduced by 50%. All assays were repeated in triplicate.

In a further experiment the test system is A549 cells. The experiment is classed as cell-based, human. The settings on record: 24 h. The procedure:
as §4

The next experiment relates to SGC7901 cells. The experiment is classed as cell-based, human. As to conditions: 24 h. The protocol: as §4
Where [4] appears, read: MTT, 1-125 μM, triplicate, read-out: IC50 HeLa.
[5] abbreviates: MTT, 1-125 μM, triplicate, read-out: IC50 A549.
Setting [6] is: MTT, 1-125 μM, triplicate, read-out: IC50 SGC7901.

Read-outs that look alike come from different tables or passages of the source.

One may read the IC50 as the concentration that gives 50% inhibition. For `CC[C@H](C)[C@H](NC(=O)[C@H](C)NC(=O)[C@H](CCCCN)NC(=O)[C@H](CC(C)C)NC(=O)[C@H](C)NC(=O)[C@@H](NC(=O)[C@H](Cc1cnc[nH]1)NC(=O)[C@H](CC(C)C)NC(=O)[C@@H](NC(=O)[C@@H](NC(=O)[C@H](CCCCN)NC(=O)[C@H](CCCCN)NC(=O)[C@H](C)NC(=O)[C@H](CO)NC(=O)[C@H](CCCCN)NC(=O)[C@H](Cc1ccccc1)NC(=O)[C@@H](NC(=O)[C@H](CCCCN)NC(=O)[C@H](CC(C)C)NC(=O)[C@H](Cc1ccccc1)NC(=O)[C@H](CO)NC(=O)[C@H](CCCCN)NC(=O)[C@H](Cc1c[nH]c2ccccc12)NC(=O)[C@H](CCCCN)NC(C)=O)[C@@H](C)O)[C@@H](C)O)C(C)C)[C@@H](C)O)C(=O)N[C@@H](CO)C(=O)N[C@@H](CO)C(N)=O` [Peptide V13K], in the experiment on PC/Chol (8:1 w/w) LUVs [1], the “Unbinding force PC/Chol” value is reported as 101 ± 37 pN. In addition, the “PC/Chol Blue shift” value in the experiment on PC/Chol (8:1 w/w) LUVs [2] is reported as 4 nm. Moreover, the “PC/SM/PE/PS/Chol Blueshift” value in experiment [3] is reported as 27 nm. Further, the IC50 was determined as 13.1 µM in the experiment with HeLa cells (setting [4]), 24.4 µM in the experiment on A549 cells (setting [5]) and 18.9 µM in the experiment on SGC7901 cells (setting [6]).
Consider “Ac-KWKSFAKTFKSAKKTVAHTALKAISS-NH2 [L6A/L17A]”, for which, in the experiment with PC/Chol (8:1 w/w) LUVs [1], the “Unbinding force PC/Chol” value came to 100 ± 34 pN. Further, the “PC/Chol Blue shift” value with PC/Chol (8:1 w/w) LUVs [2] turned out to be 0 nm. The “PC/SM/PE/PS/Chol Blueshift” value in experiment [3] turned out to be 21 nm. Also, the IC50 in the experiment with HeLa cells (setting [4]), in the experiment with A549 cells (setting [5]) and in the experiment with SGC7901 cells (setting [6]) was over 125 µM each time.
Take “Ac-KWKSFLKTFKSAEKTVLHTALKAISS-NH2 [Peptide V13E]”: in the experiment on PC/Chol (8:1 w/w) LUVs [1], the “Unbinding force PC/Chol” value was determined as 89 ± 34 pN. For the same molecule, the “PC/Chol Blue shift” value in the experiment with PC/Chol (8:1 w/w) LUVs [2] was found to be 1 nm. The “PC/SM/PE/PS/Chol Blueshift” value in experiment [3] is given as 23 nm. Besides, the IC50 in the experiment with HeLa cells was determined as 73.7 µM; in the experiment with A549 cells it was 110 µM; with SGC7901 cells, 92 µM.
With “Ac-KWKSFLKTFKSALKTVLHTALKAISS-NH2 [Peptide V13L]”, in the experiment with PC/Chol (8:1 w/w) LUVs [1], the “Unbinding force PC/Chol” value was 98 ± 30 pN. Further, the “PC/Chol Blue shift” value in the experiment with PC/Chol (8:1 w/w) LUVs [2] is recorded as 11 nm. The IC50 with HeLa cells came to 4.86 µM; in the experiment with A549 cells, 2.8 µM; in the experiment with SGC7901 cells it was 2 µM.
